Two compounds from PMC6130489, “Caffeic acid methyl and ethyl esters exert potential antidiabetic effects on glucose and lipid metabolism in cultured murine insulin-sensitive cells through mechanisms implicating activation of AMPK” (Pharmaceutical Biology, 2017) can be followed below.

One assay concerns 3T3-L1 adipocytes. Description: Adipogenesis assay (AdipoRed lipid accumulation). The assay is classed as cell-based. Conditions: Mus musculus, 192 h, 3T3-L1, day 8 of differentiation; for IC50: read-out: adipogenesis inhibition IC50. The protocol: Starting from day 0 of differentiation, 3T3-L1 adipocytes were separately treated with different concentrations of either CAME or CAEE (12.5, 25, 50 and 100 μM). Cells treated with vehicle (0.1% DMSO) in proliferation and differentiation media were used as negative controls. The adipogenic compound rosiglitazone (5 μM) was added to some vehicle-treated wells and served as the positive control. At day 8 after initiation of differentiation, intracellular lipid accumulation was quantified as previously described using AdipoRed Reagent according to the manufacturer’s protocol (Martineau et al. [2010]).
Figure 3. (A and B) Anti-adipogenic effect of CAME and CAEE in 3T3-L1 adipocytes. Cells were treated with several concentrations (12.5, 25, 50 and100 μM) of either CAME or CAEE in DMEM containing 10% FBS and the standard adipogenic cocktail (500 μM 3-isobutyl-1-methylxanthine, 500 nM insulin and 10 μM dexamethasone) for 2 days then in DMEM containing 10% FBS and 500 nM insulin starting from days 2-8 of differentiation. This medium was changed every 2 days. (A) On day 8, lipid content was measured by AdipoRed assay. Results represent the means ± SEM of three independent experiments. *Indicates a significant (p ≤ 0.05) difference, **(p < 0.01), ***(p < 0.001) from the vehicle control group. […] Vehicle-treated cells show the presence of lipid droplets. On the other hand, cells treated with the maximum nontoxic concentration (100 μM) of either CAME or CAEE retained the fibroblast-like morphology of pre-adipocytes and were devoid of lipid droplets. (C) CAME and CAEE inhibit pre-adipocyte clonal expansion. Confluent 3T3-L1 pre-adipocytes undergoing clonal expansion in response to differentiation cues were treated with vehicle or 12.5, 25, 50 and 100 μM of either CAME or CAEE for 20 h and incorporation of ^3H-labeled thymidine was measured. Normalized data are presented as mean ± SEM of three independent experiments. **Indicates a significant (p ≤ 0.01) difference, ***(p < 0.001) from the vehicle control group.

A further assay deals with GLUT1. The experiment in a line: Western immunoblot GLUT1 protein content in L6 myotubes. The assay is classed as cell-based, rat. Conditions: 50 μM, 18 h. The protocol:
(§1) L6 cells myotubes, H4IIE cells and 3T3-L1 adipocytes were treated with either CAME, CAEE (50 μM each) or vehicle (DMSO) for 18 h. Insulin (100 nM) or aminoimidazole carboxamide ribonucleotide (AICAR; 1 mM) were added to some vehicle-treated wells 30 min prior to the end of the treatment and served as the positives controls. Protein content was assayed by the bicinchoninic acid method (Thermo Scientific Pierce Protein Research, Rockford, IL) standardized to bovine serum albumin. Western immunoblotting was performed as described elsewhere (Eid et al. [2010]). […] Immunoreactive bands were visualized by enhanced chemiluminescence and quantified by the Scion Image program (Scion Corporation, Frederick, MD). […]
(§2) Figure 1. […] Cells were treated as previously described, cell surface GLUT4myc was detected by an enzyme-linked colorimetric assay. […] Results represent the means ± SEM of three independent experiments, and 3-4 cells were analyzed for each condition per experiment. *Indicates a significant (p ≤ 0.05) difference, **(p < 0.01) from the vehicle control group as assessed by ANOVA. […] Data are expressed as (D) phospho-AMPK/β-actin, (E) GLUT4/β-actin and (F) GLUT1/β-actin and are given as mean ± SEM from 3 experiments. *p < 0.05 indicates a significant difference, **(p < 0.01) from the vehicle control group.
(A western blot detects proteins with antibodies after separation by electrophoresis.)

For assay [1], the system named is Akt. Description: Western immunoblot phospho-Akt in 3T3-L1 adipocytes. The conditions noted are these: 100 μM (Figure 4 legend). The assay is classed as cell-based, mouse. The protocol: Insulin (100 nM) or aminoimidazole carboxamide ribonucleotide (AICAR; 1 mM) were added to some vehicle-treated wells 30 min prior to the end of the treatment and served as the positives controls. Protein content was assayed by the bicinchoninic acid method (Thermo Scientific Pierce Protein Research, Rockford, IL) standardized to bovine serum albumin. Western immunoblotting was performed as described elsewhere (Eid et al. [2010]). Membranes were incubated overnight with phospho-AMPK, phospho-Akt, GLUT4, GLUT1 and β-actin antibodies (1:1000 dilution, Cell Signalling Technology, Danvers, MA), or with PPAR-γ, SREBP-1 (1:200, Santa Cruze Biotechnology, Santa Cruz, CA), followed by incubation with HRP-coupled secondary antibody (1:10,000) for 1 h. Immunoreactive bands were visualized by enhanced chemiluminescence and quantified by the Scion Image program (Scion Corporation, Frederick, MD). Experiments were repeated on 3 different passages of cells, each passage containing all conditions in parallel.
Figure 4. CAME and CAEE inhibit C/EBP-β and PPAR-γ protein expression through mechanisms implicating AMPK pathway. Shown are representative blots of 3T3-adipocytes treated with the maximum nontoxic concentration (100 μM) of either CAME or CAEE. […] Data are expressed as C/EBP-β/β-actin (D), PPAR-γ/β-actin (E), phospho-Akt/pan-Akt (F) and phospho-AMPK/pan-AMPK (G). […]

Another assay has as its system GLUT4. The experiment in a line: Western immunoblot GLUT4 protein content in L6 myotubes. In kind it is cell-based, rat. The conditions noted are these: 50 μM, 18 h, GLUT4/β-actin. The procedure:
as §1, §2

Assay [2] deals with Akt. The experiment in a line: Western immunoblot phospho-Akt in L6 myotubes. In kind it is cell-based, rat. The conditions noted are these: 50 μM, 18 h. The procedure:
as §1, §2

In general, IC50 refers to the concentration at which inhibition is half-maximal. By inhibition is commonly meant the share of the control response that was lost under treatment. A lower inhibition goes with a weak effect. Take `CCOC(=O)/C=C/c1ccc(O)c(O)c1` [CAEE, caffeic acid ethyl ester]: in the assay with 3T3-L1 adipocytes, the concentration for half-maximal inhibition (IC50) worked out at 12.9 µM and 100 µM produced 97.3 ± 3% inhibition. Besides, the “effect on GLUT1 protein levels” value with GLUT1 was “no effect”. The Akt phosphorylation result in the assay on Akt [1] is reported as “did not modulate”. Moreover, the “GLUT4 content, fold compared to DMSO” value in the assay on GLUT4 is given as about 3.2 fold. Besides, in the assay with Akt [2], the “effect on Akt (phospho-Akt)” value is “no effect”.
For `COC(=O)/C=C/c1ccc(O)c(O)c1` [CAME, CA methyl ester], in the assay on 3T3-L1 adipocytes, the IC50 was 13.8 µM and at 100 µM the inhibition was 83.3 ± 7.2%. The “effect on GLUT1 protein levels” value with GLUT1 is recorded as “no effect”. Also, the Akt phosphorylation result in the assay on Akt [1] is “did not modulate”. Besides, the “GLUT4 content, fold compared to DMSO” value in the assay on GLUT4 is on record as about 2.7 fold. Further, the “effect on Akt (phospho-Akt)” value in the assay with Akt [2] was “no effect”.
